The conditions of data set [1]: 15-membered ring.
The next data set has as its target HCV NS5B (Hepatitis C virus genotype 1b (strain HC-J4), UniProt O92972). The experiment in a line: biochemical. Type of data set: biochemical. The protocol: The cDNA encoding NS5B amino acid 1-570 (HC-J4, genotype 1b, pCV-J4L6S, genebank accession number AF054247) was subcloned into the Nhe I and Xho I restriction sites of pET-21b. Expression of the subsequent His-tagged C-terminal 21 amino acid deleted NS5B was performed as follows:
The NS5B expression construct was transformed into E. coli BL21(DE3) (Novagen, Madison, Wis.). Five milliliters of LB-medium supplemented with ampicillin (50 μg/mL) was inoculated with one colony. When the pre-culture reached an optical density of 0.6 measured at 600 nm, it was transferred to fresh LB-medium supplemented with ampicillin, at a ratio of 1:200. Cells were grown to an optical density at 600 nm of 0.6, after which the expression cultures were shifted to a growth temperature of 20° C. following induction with isopropyl-1-thio-β-D-galactopyranoside and MgCl2 at a final concentration of 0.4 mM and 10 μM, respectively. After ten hours of induction, cells were harvested by centrifugation and resuspended in 20 mM Tris-HCl, pH 7.5, 300 mM NaCl, 10% glycerol, 0.1% NP40, 4 mM MgCl2, 5 mM DTT supplemented with EDTA-free Complete Protease Inhibitor (Roche, Basel, Switzerland). Cell suspensions were disrupted by sonication and incubated with 10-15 mg/L of DNase I (Roche, Basel, Switzerland) for 30 minutes. Cell debris was removed through ultracentrifugation at 30,000×g for 1 hour and clarified cell lysate was flash frozen and stored at −80° C. prior to purification.
Clarified cell lysate was thawed and subsequently loaded onto a 5 mL pre-packed HisTrap FF column equilibrated with 25 mM HEPES, pH 7.5, 500 mM NaCl, 10% glycerol and 5 mM DTT. Proteins were eluted with 500 mM imidazole at a flow rate of 1 mL/min. Fractions containing the protein of interest were applied onto a pre-packed 26/10 HiPrep Desalting Column equilibrated with 25 mM HEPES, pH 7.5, 150 mM NaCl, 10% glycerol and 5 mM DTT. The buffer-exchanged NS5B peak was then applied onto a 20 mL Poly-U Sepharose column. Protein was eluted with an increasing salt gradient and fractions collected. Protein purity was assessed on Nu-PAGE pre-cast gels (Invitrogen, Carlsbad, Calif.). Purified NS5B samples were concentrated using Centri-Prep concentrators (Millipore, Billerica, Mass., USA) and protein concentrations were determined by Bradford assay (Pierce, Rockford, Ill., USA).
Measurement of HCV NS5B polymerization activity was performed by evaluating the amount of radio labeled GTP incorporated by the enzyme in a newly synthesized RNA using heteropolymeric RNA template/primer. The high-throughput RNA dependent RNA polymerase (RdRp) assay was carried out in 384-well plates using 100 nM enzyme, 300 nM 5′-biotinylated oligo(rG13)/poly(rC) primer-template, 600 nM of GTP, and 0.1 μCi of [^3H]GTP in 25 mM Tris-HCl, pH 7.5, 5 mM MgCl2, 25 mM KCl, 17 mM NaCl and 3 mM of dithiothreitol (DTT). Test compounds were dissolved in DMSO. The test compounds were added to the preformed polymerase-template complex, and incubated at room temperature for 15 min before the addition of nucleoside triphosphates (NTP). The 30 μl reaction was terminated after 2 h at 25° C. upon addition of 30 μl A PVT-SPA beads (Amersham Biosciences RPNQ0009, 5 mg/ml in 0.5 M EDTA).

Data set [2] concerns HCV replicons (NS3-NS5B regions of HCV type 1b) in Huh-Luc cells. The data set can be described thus: HCV replicon assay in Huh-7 luc/neo (Huh-Luc) cells, luciferase readout. Type of data set: cell-based. Conditions: Hepatitis C virus, Huh-7, 72 h, three days incubation, luciferase activity. The text has this:
The compounds of formula (I) were examined for activity in the inhibition of HCV RNA replication in a cellular assay. […] The cellular assay was based on a bicistronic expression construct, as described by Lohmann et al. (1999) Science vol. 285 pp. 110-113 with modifications described by Krieger et al. (2001) Journal of Virology 75: 4614-4624, in a multi-target screening strategy. In essence, the method was as follows.
The assay utilized the stably transfected cell line Huh-7 luc/neo (hereafter referred to as Huh-Luc). This cell line harbors an RNA encoding a bicistronic expression construct comprising the wild type NS3-NS5B regions of HCV type 1b translated from an Internal Ribosome Entry Site (IRES) from encephalomyocarditis virus (EMCV), preceded by a reporter portion (firefly luciferase), and a selectable marker portion (neo^R, neomycine phosphotransferase). The construct is bordered by 5′ and 3′ NTRs (non-translated regions) from HCV type 1b. Continued culture of the replicon cells in the presence of G418 (neo^R) is dependent on the replication of the HCV RNA. The stably transfected replicon cells that express HCV RNA, which replicates autonomously and to high levels, encoding inter alia luciferase, were used for screening the antiviral compounds.
The replicon cells were plated in 384 well plates in the presence of the test and control compounds which were added in various concentrations. Following an incubation of three days, HCV replication was measured by assaying luciferase activity (using standard luciferase assay substrates and reagents and a Perkin Elmer ViewLux™ ultraHTS microplate imager). […] The inhibitory activity of the compound on luciferase activity was monitored on the Huh-Luc cells, enabling a dose-response curve for each test compound. EC50 values were then calculated, which value represents the amount of the compound required to decrease the level of detected luciferase activity by 50%, or more specifically, the ability of the genetically linked HCV replicon RNA to replicate.

[3] abbreviates: 100 nM enzyme, [3H]GTP incorporation, 2 h at 25° C., read-out: IC50 (μM) Enzymatic assay.

As usually defined, the IC50 is the point on the concentration scale where inhibition reaches its midpoint. What is called EC50 is the concentration that produces a half-maximal response. Low values mean greater potency, high ones weaker potency.

Like-named read-outs stand apart in the source and are kept apart here.

HCV NS5B, sequence (O92972 2420-3010 limits assumed): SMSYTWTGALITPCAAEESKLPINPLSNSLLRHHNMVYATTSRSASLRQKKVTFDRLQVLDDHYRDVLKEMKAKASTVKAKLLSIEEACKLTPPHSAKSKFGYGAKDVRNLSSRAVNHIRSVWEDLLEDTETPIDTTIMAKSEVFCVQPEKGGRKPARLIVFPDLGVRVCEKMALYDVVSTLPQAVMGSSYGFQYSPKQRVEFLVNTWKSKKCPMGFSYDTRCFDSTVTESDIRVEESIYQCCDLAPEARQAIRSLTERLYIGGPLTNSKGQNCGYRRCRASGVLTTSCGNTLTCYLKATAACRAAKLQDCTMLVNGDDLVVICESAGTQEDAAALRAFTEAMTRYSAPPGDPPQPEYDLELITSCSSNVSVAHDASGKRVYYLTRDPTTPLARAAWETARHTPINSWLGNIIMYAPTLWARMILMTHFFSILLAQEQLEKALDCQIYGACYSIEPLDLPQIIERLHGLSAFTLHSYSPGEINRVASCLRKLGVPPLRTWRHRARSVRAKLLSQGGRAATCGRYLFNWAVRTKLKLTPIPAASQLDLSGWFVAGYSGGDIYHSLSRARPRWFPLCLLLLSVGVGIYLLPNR

In data set [1] (rcm bond, Hoveyda-Grubbs 1st gen (2 portions), DCE, 80.0 °C), `CS(=O)(=O)N1CCN(c2ccc([N+](=O)[O-])cc2COc2ccc(-c3c(C4CCCCC4)c4ccc5cc4n3CC(=O)NCCC=CCCNC5=O)cc2)CC1` returned a ring closure, isolated yield of 70%.

For `O=C1Cn2c(-c3ccc(OCc4cc(N5CCCC5=O)ccc4N4CCOCC4)cc3)c(C3CCCCC3)c3ccc(cc32)C(=O)NCCC=CCCN1`, in data set [1] (from C=CCCNC(=O)Cn1c(-c2ccc(OCc3cc(N4CCCC4=O)ccc3N3CCOCC3)cc2)c(C2CCCCC2)c2ccc(C(=O)NCCC=C)cc21, rcm bond, Hoveyda-Grubbs 1st gen (2 portions), DCE, 80.0 °C), the ring closure, isolated yield was 25%.

In turn, `CS(=O)(=O)N1CCN(c2ccc(N3CCCC3=O)cc2COc2ccc(-c3c(C4CCCCC4)c4ccc5cc4n3CC(=O)NCCC=CCS(=O)(=O)NC5=O)cc2)CC1` [Cpd 14, 17-Cyclohexyl-18-[4-[2-(4-methanesulfonyl-piperazin-1-yl)-5-(2-oxo-pyrrolidin-1-yl)-benzyloxy]-phenyl]-10,10-dioxo-10λ^6-thia-1,4,11-triaza-tricyclo-[11.5.2.0^16,19]icosa-7,13(20),14,16(19),17-pentaene-3,12-dione] yielded an IC50 on HCV NS5B of 0.88 µM. The compound further returned an EC50 in data set [2] of 2.04 µM.

Regarding `CS(=O)(=O)N1CCN(c2ccc(N3CCCC3=O)cc2COc2ccc(-c3c(C4CCCCC4)c4ccc5cc4n3CC(=O)NCC/C=C\CCNC5=O)c(F)c2)CC1` [Cpd 15, 17-Cyclohexyl-18-[2-fluoro-4-[2-(4-methanesulfonyl-piperazin-1-yl)-5-(2-oxo-pyrrolidin-1-yl)-benzyloxy]-phenyl]-1,4,11-triaza-tricyclo[11.5.2.0^16,19]icosa-7,13(20),14,16(19),17-pentaene-3,12-dione], the IC50 at HCV NS5B (setting [3]) was 1.58 µM. In data set [2], this compound gave an EC50 of 0.27 µM.

In the case of `COc1ccc(-c2ccc(Cl)cc2)c(-c2ccc3cc(-c4c(C5CCCCC5)c5ccc6cc5n4CC(=O)NCC/C=C\CCNC6=O)ccc3n2)c1` [Cpd 16, 18-[2-(4′-Chloro-4-methoxy-biphenyl-2-yl)-quinolin-6-yl]-17-cyclohexyl-1,4,11-triaza-tricyclo[11.5.2.0^16,19]icosa-7,13(20),14,16(19),17-pentaene-3,12-dione], on HCV NS5B (setting [3]), the IC50 was determined as 1.44 µM. Besides, in data set [2], it took 17.6 µM to reach a half-maximal effect (EC50).

As to `Cc1nc(C)c(-c2ccc3cc(-c4c(C5CCCCC5)c5ccc6cc5n4CC(=O)NCC/C=C\CCNC6=O)ccc3n2)s1` [Cpd 17, 17-Cyclohexyl-18-[2-(2,4-dimethyl-thiazol-5-yl)-quinolin-6-yl]-1,4,11-triaza-tricyclo[11.5.2.0^16,18]icosa-7,13(20),14,16(19),17-pentaene-3,12-dione], on HCV NS5B (setting [3]), the IC50 amounted to 2.7 µM. Moreover, the EC50 in data set [2] came to 5.39 µM.

In the case of `Cc1nc(C)c(-c2ccc3cc(-c4c(C5CCCCC5)c5ccc6cc5n4CC(=O)NCC/C=C\CS(=O)(=O)NC6=O)ccc3n2)s1` [Cpd 18, 17-cyclohexyl-18-[2-(2,4-dimethyl-thiazol-5-yl)-quinolin-6-yl]-10,10-dioxo-10λ^6-thia-1,4,11-triaza-tricyclo[11.5.2.0^16,19]icosa-7,13(20),14,16(19),17-pentaene-3,12-dione], on HCV NS5B (setting [3]), the IC50 was determined as 0.04 µM. For the same compound, in data set [2], it took 12.8 µM to reach a half-maximal effect (EC50).

For the compound `CN1C/C=C\CNC(=O)Cn2c(-c3ccc(OCc4cc(N5CCCC5=O)ccc4N4CCN(S(C)(=O)=O)CC4)cc3F)c(C3CCCCC3)c3ccc(cc32)C(=O)NS1(=O)=O` [Cpd 19, 17-cyclohexyl-18-(2-fluoro-4-(2-(4-methanesulfonyl-piperazin-1-yl)-5-(2-oxo-pyrrolidin-1-yl)-benzyloxy)-phenyl)-9-methyl-10,10-dioxo-10λ^6-thia-1,4,9,11-tetraaza-tricyclo[11.5.2.0^16,19]icosa-6,13(20),14,16(19),17-pentaene-3,12-dione], on HCV NS5B (setting [3]), the IC50 turned out to be 0.042 µM. Further, the EC50 in data set [2] worked out at 2.36 µM.

For `CN1CCCCCNC(=O)Cn2c(-c3ccc(Cl)cc3)c(C3CCCCC3)c3ccc(cc32)C(=O)NS1(=O)=O` [Cpd 21, 19-(4-Chloro-phenyl)-18-cyclohexyl-10-methyl-11,11-dioxo-11λ^6-thia-1,4,10,12-tetraaza-tricyclo[12.5.2.017,20]henicosa-14(21),15,17(20),18-tetraene-3,13-dione], the IC50 at HCV NS5B (setting [3]) stood at 0.19 µM. Further, the EC50 in data set [2] worked out at 0.59 µM.

With `CN1C/C=C\CN(C)S(=O)(=O)NC(=O)c2ccc3c(C4CCCCC4)c(-c4ccc(Cl)cc4)n(c3c2)CC1=O` [Cpd 23, 18-(4-Chloro-phenyl)-17-cyclohexyl-4,9-dimethyl-10,10-dioxo-10λ^6-thia-1,4,9,11-tetraaza-tricyclo[11.5.2.016,19]icosa-6,13(20),14,16(19),17-pentaene-3,12-dione], the IC50 at HCV NS5B (setting [3]) came out at 0.45 µM. In data set [2], this compound displayed an EC50 of 1.08 µM.

In data set [1] (amide bond), `CN1CCCCN(C)S(=O)(=O)NC(=O)c2ccc3c(C4CCCCC4)c(-c4ccc(Cl)cc4)n(c3c2)CC1=O` [Cpd 24, 18-(4-Chloro-phenyl)-17-cyclohexyl-4,9-dimethyl-10,10-dioxo-10λ^6-thia-1,4,9,11-tetraaza-tricyclo[11.5.2.016,19]icosa-13(20),14,16(19),17-tetraene-3,12-dione] registered a ring closure, isolated yield of 12%. For the same compound, the midpoint of the response in data set [2], the EC50, lay at 0.53 µM.

`COc1ccc(-c2c(C3CCCCC3)c3ccc4cc3n2CC(=O)NCCCCN(C)S(=O)(=O)NC4=O)cc1` [Cpd 25, 17-Cyclohexyl-18-(4-methoxy-phenyl)-9-methyl-10,10-dioxo-10λ^6-thia-1,4,9,11-tetraaza-tricyclo[11.5.2.016,19]icosa-13(20),14,16(19),17-tetraene-3,12-dione]: the IC50 at HCV NS5B (setting [3]) came to 0.18 µM. In data set [2], this compound returned an EC50 of 1.76 µM.

Regarding `COc1ccc(-c2c(C3CCCCC3)c3ccc4cc3n2CC(=O)NCCN(C)CCNS(=O)(=O)NC4=O)cc1` [Cpd 27, 18-Cyclohexyl-19-(4-methoxy-phenyl)-7-methyl-11,11-dioxo-11λ^6-thia-1,4,7,10,12-pentaaza-tricyclo[12.5.2.017,20]henicosa-14(21),15,17(20),18-tetraene-3,13-dione], the IC50 at HCV NS5B (setting [3]) was 0.44 µM. In data set [2], this compound gave an EC50 of 3.47 µM.

For the compound `CN1CC=CCCNC(=O)Cn2c(-c3ccoc3)c(C3CCCCC3)c3ccc(cc32)C(=O)NS1(=O)=O` [Cpd 29, 18-Cyclohexyl-19-furan-3-yl-10-methyl-11,11-dioxo-11λ^6-thia-1,4,10,12-tetraaza-tricyclo[12.5.2.017,20]henicosa-7,14(21),15,17(20),18-pentaene-3,13-dione], the IC50 on HCV NS5B (setting [3]) was 0.051 µM. Further, in data set [2], the EC50 stood at 0.65 µM.

The record behind these values is US8524716B2, “Macrocyclic indoles as hepatitis C virus inhibitors” (priority 2007, dated 2013).
